Assay type in all cases: physicochemical
Data set [1] can be described thus: Measurement of Δn (refractive index anisotropy), wedge-shaped liquid crystal cell. Conditions: at 550 nm and 30° C.; for compounds liable to crystallize estimated from extrapolated values of mixtures with other liquid crystals. The text has this:
As a method of measuring the Δn, a method using a wedge-shaped liquid crystal cell described on page 202 of the Liquid Crystal Handbook (edited by Liquid Crystal Handbook Editing Committee, published by Maruzen Co., Ltd.) is generally used. In a case of a compound which is liable to crystallize, it is also possible to carry out evaluation with a mixture thereof with other liquid crystals and to estimate Δn from extrapolated values thereof.
The Δn corresponds to a measurement value at a wavelength of 550 nm at 30° C.
<Measurement of Δn (Refractive Index Anisotropy)>
Δn of each of the compounds was measured by a method using a wedge-shaped liquid crystal cell described on page 202 of the Liquid Crystal Handbook (edited by Liquid Crystal Handbook Editing Committee, published by Maruzen Co., Ltd.). In a case of the compound which is liable to crystallize, evaluation with a mixture thereof with other liquid crystals was carried out and Δn was estimated from extrapolated values thereof. The values in the table represent Δn's at 550 nm and 30° C.
Δn in Comparative Example 1 is a measurement value in a nematic phase.

Data set [2] can be described thus: Measurement of solution absorption spectrum (colorability evaluation). Conditions: chloroform solution, 1 cm cell; for λmax: wavelength of maximum light absorption coefficient in the region of 300 nm or more; for λ (1000): wavelength showing light absorption coefficient ε of 1000 in the region of 300 nm or more. Here is the method: <Measurement of Solution Absorption Spectrum (Colorability Evaluation)>
A solution absorption spectrum of each of the compounds was measured using a spectrophotometer UV-3100PC manufactured by Shimadzu Corporation. Using chloroform as a solvent, a solution in which a predetermined amount of the compound was dissolved was measured in a 1 cm cell, and λmax and λ (1000) were calculated from the obtained spectrum and molecular weight. λmax represents a wavelength showing the maximum light absorption coefficient in the region of 300 nm or more, and λ (1000) represents a wavelength showing a light absorption coefficient ε of 1000 in the region of 300 nm or more. It can be evaluated that as wavelengths of λmax and λ (1000) became smaller (as wavelengths became shorter), colorability of the compound was more inhibited.
For example, λmax is preferably 310 nm or less. In addition, λ (1000) is preferably 350 nm or less and more preferably 325 nm or less.

Data set [3] in a line: Solubility evaluation in methyl ethyl ketone. The settings on record: room temperature (23° C.), precipitation concentration. As for the experimental part: Solubility of each of the compounds in methyl ethyl ketone was evaluated. A solution in which the compound was ultrasonically dissolved or dissolved by heating was produced. […] Solutions were produced at various concentrations for each of the compounds, and solubility of the compound was evaluated according to the following criteria, using a concentration at which the compound was precipitated as a precipitation concentration. As a precipitation concentration became higher, solubility of the compound was more excellent.
A: a precipitation concentration was 20% by mass or more
B: a precipitation concentration was 10% by mass or more and less than 20% by mass
C: a precipitation concentration was less than 10% by mass

The nature of data set [4]: Light fastness test of optically anisotropic film. The settings on record: film of compound 50 parts with B-2 50 parts; xenon, 5 million lx·h for 50 hours, 63° C., 50% RH, oxygen-blocking; transmittance change at 420 nm. As for the experimental part: <Light Fastness Evaluation>
(Production of Optically Anisotropic Film)
A coating liquid having the following composition was prepared and applied to a rubbing-treated glass equipped with an alignment film by spin-coating. Each composition was irradiated with ultraviolet rays of 500 mJ/cm^2 through a filter that cuts light having a wavelength of 350 nm or less on a hot plate heated to a temperature until showing a nematic phase, and thereby an optically anisotropic film was produced.
The produced optically anisotropic film was irradiated with light using a Super Xenon Weather Meter SX75 manufactured by Suga Test Instruments Co., Ltd. Using KU-1000100 manufactured by King Seisakusho Co., Ltd. as a UV cut filter, a light fastness test was conducted by irradiation of 5 million l×h of light for 50 hours under an oxygen-blocking condition. A temperature of the test subject (a temperature inside the test device) was set to 63° C. A relative humidity in the test device was 50% RH.
A transmittance change of the optically anisotropic film before and after the light fastness test was measured. Light fastness in a case where a transmittance change at 420 nm was less than 5% was evaluated as A, and light fastness in a case where a transmittance change at 420 nm was 5% or more was evaluated as B. As a transmittance change became small, light fastness was more excellent.

The structures appear in SMILES notation.

`C=CC(=O)OCCc1ccc(C#Cc2ccc(CCc3ccc(C#Cc4ccc(CCOC(=O)C=C)cc4)cc3)cc2)cc1` [Compound A-1]: the Δn in data set [1] was 0.30. Further, in data set [2], the λmax was found to be 309 nm and the “λ (1000)” value worked out at 320 nm. Besides, the Solubility entry in data set [3] was “C (a precipitation concentration was less than 10% by mass)”. Further, in data set [4], the Light fastness result is “A (a transmittance change at 420 nm was less than 5%)”.

For the compound `C=CC(=O)OCCc1ccc(C#Cc2ccc(COc3ccc(C#Cc4ccc(CCOC(=O)C=C)cc4)cc3)cc2)cc1` [Compound A-2], the Δn in data set [1] was 0.34. Besides, in data set [2], the λmax is recorded as 309 nm and the “λ (1000)” value turned out to be 327 nm. Besides, in data set [3], the Solubility result was “C (a precipitation concentration was less than 10% by mass)”. Moreover, in data set [4], the Light fastness result is “A (a transmittance change at 420 nm was less than 5%)”.

With `C=CC(=O)OCCc1ccc(C#Cc2ccc(COc3ccc(C#Cc4ccc(CCOC(=O)C=C)cc4)cc3C)cc2)cc1` [Compound A-3], in data set [1], the Δn was 0.34. In addition, in data set [2], the λmax worked out at 308 nm and the “λ (1000)” value is given as 327 nm. Moreover, the Solubility entry in data set [3] is “B (a precipitation concentration was 10% by mass or more and less than 20% by mass)”. Further, the Light fastness entry in data set [4] was “A (a transmittance change at 420 nm was less than 5%)”.

On to `C=CC(=O)OCCc1ccc(C#Cc2ccc(COc3ccc(C#Cc4ccc(CCOC(=O)C=C)cc4)cc3C(F)(F)F)cc2)cc1` [Compound A-4], for which the Δn in data set [1] is 0.36. Further, in data set [2], the λmax was determined as 309 nm and the “λ (1000)” value came out at 325 nm. The Solubility entry in data set [3] was “A (a precipitation concentration was 20% by mass or more)”. In addition, the Light fastness result in data set [4] is “A (a transmittance change at 420 nm was less than 5%)”.

As to `C=CC(=O)OCCc1ccc(C#Cc2ccc(COc3ccc(C#Cc4ccc(CCOC(=O)C=C)cc4)cc3C(C)(C)C)cc2)cc1` [Compound A-5], the Δn in data set [1] is 0.33. In data set [2], the λmax was found to be 308 nm and the “λ (1000)” value turned out to be 329 nm. Also, the Solubility entry in data set [3] is on record as “A (a precipitation concentration was 20% by mass or more)”. Moreover, the Light fastness entry in data set [4] is “A (a transmittance change at 420 nm was less than 5%)”.

`C=CC(=O)OCCc1ccc(C#Cc2ccc(COc3ccc(C#Cc4ccc(CCOC(=O)C=C)cc4)cc3C(=O)OC)cc2)cc1` [Compound A-6]: the Δn in data set [1] is given as 0.37. Moreover, in data set [2], the λmax turned out to be 308 nm and the “λ (1000)” value amounted to 343 nm. Moreover, in data set [3], the Solubility entry was “A (a precipitation concentration was 20% by mass or more)”. Further, the Light fastness result in data set [4] was “A (a transmittance change at 420 nm was less than 5%)”.

Turning to `C=CC(=O)OCCc1ccc(C#Cc2ccc(COc3ccc(C#Cc4ccc(CCOC(=O)C=C)cc4)cc3C(=O)OC(C)(C)C)cc2)cc1` [Compound A-7], the Δn in data set [1] is recorded as 0.33. Moreover, in data set [2], the λmax was found to be 309 nm and the “λ (1000)” value turned out to be 339 nm. In addition, in data set [3], the Solubility result is “A (a precipitation concentration was 20% by mass or more)”. For the same compound, in data set [4], the Light fastness result was “A (a transmittance change at 420 nm was less than 5%)”.

As to `CC(=O)OCCCCCCCCCCOc1ccc(C#Cc2ccc(OC(=O)c3ccc(C#Cc4ccc(OCCCCCCCCCCOC(C)=O)c(F)c4)cc3)cc2)cc1F` [Compound B-1, reference compound], the Δn in data set [1] is recorded as 0.25. Besides, in data set [2], the λmax was determined as 315 nm and the “λ (1000)” value was found to be 364 nm. The Solubility result in data set [3] was “C (a precipitation concentration was less than 10% by mass)”. Moreover, the Light fastness entry in data set [4] is reported as “B (a transmittance change at 420 nm was 5% or more)”.
